Measured values from patent US20100105685A1, “S-Nitrosothiol Compounds and Related Derivatives” (Galleon Pharmaceuticals, Inc., priority 2006, published 2010).
Entries after “also recorded” stand apart in the source; their conditions may differ.

Legend:
[1] = tested on: fentanyl-induced respiratory depression; test: Fentanyl-induced respiratory depression model to assess restoration of ventilatory control; type: in vivo, Sprague-Dawley male rats; conditions: rats; for restoration of ventilatory control / reversing the fentanyl-induced respiratory depression: fentanyl 75 to 150 micrograms per kilogram, intravenous infusion
[2] = cited from earlier work
apnea episodes = conditions: cited from earlier work

Structure (SMILES): O=C(O)CCCCN[C@@H](CS)C(=O)O [GLN 10,013]
- restoration of ventilatory control / reversing the fentanyl-induced respiratory depression [1]: successfully restores ventilatory control
- reversal of respiratory depression, acute phase ([1]; fentanyl-induced, acute phase (0 to 5 minutes)): reverse respiratory depression
- reversal of respiratory depression, chronic phases ([1]; fentanyl-induced, chronic phases (10 to 50 minutes)): reverse respiratory depression

Structure (SMILES): O=C(O)CNC(=O)[C@H](CS)Nc1nccs1 [GLN 10,015]
- restoration of ventilatory control / reversing the fentanyl-induced respiratory depression [1]: not be effective; also recorded: does not restore

Structure (SMILES): CC(=O)N[C@@H](CS)C(=O)O [N-acetyl-L-cysteine]
- absorption after oral administration [2]: poorly absorbed
- first pass metabolism by the liver ([2]; oral administration, destroys most of the parent drug): extensive first pass metabolism

Structure (SMILES): CC(=O)Nc1nnc(S(N)(=O)=O)s1 [acetazolamide]
- apnea episodes after treatment (apnea episodes; central apnea patients, low doses, after one month of treatment (25.5 pre-treatment)): 6.8
- decrease in apnea episodes (apnea episodes; central apnea patients, low doses, after one month of treatment): 73%
- reduction in apnea episodes (apnea episodes; patients that had predominantly obstructive sleep apnea): about 25%
